Measurements: publication PMC6319706 (PLoS ONE, 2019)
Read-outs that look alike come from different tables or passages of the source.

Legend:
mouse adult α1β1εδ nAChR [1] = target: T1, mouse adult α1β1εδ nAChR (Mus musculus, UniProt P02716+P04756+P09690+P20782); assay type: cell-based
mouse α3β2γ2 GABAAR = mouse α3β2γ2 GABAAR (Mus musculus, UniProt P22723+P26049+P63137); test: cell-based; conditions: for inhibition at 100 µM: read-out: inhibition of GABA-evoked currents
mouse adult α1β1εδ nAChR [2] = target: T1, mouse adult α1β1εδ nAChR; test: cell-based; assay type: cell-based
α1β3γ2 GABAAR = α1β3γ2 GABAAR (Mus musculus, UniProt P62812+P63080); assay type: binding
human α7 nAChR = human α7 nAChR (Homo sapiens, UniProt P36544); test: cell-based
mouse 5-HT3AR [3] = target: T2, mouse 5-HT3AR (Mus musculus, UniProt P23979); test: cell-based; assay type: cell-based
GABAAR = conditions: cited from earlier work
mouse 5-HT3AR [4] = target: T2, mouse 5-HT3AR; conditions: cited from earlier work
human 5-HT3AR = conditions: cited from earlier work
[5] = system: end-plate muscle type nAChRs; conditions: cited from earlier work

| Molecule | effect on maximal acetylcholine response (in words) (mouse adult α1β1εδ nAChR [1]) | inhibition at 100 µM (mouse α3β2γ2 GABAAR) [%] | IC50 (mouse adult α1β1εδ nAChR [2]) [nM] | fold less potent than BBIQA1 and d-TC (mouse adult α1β1εδ nAChR [2]) | nH (Hill slope) (mouse adult α1β1εδ nAChR [2]) | competition with Alexa Fluor 546 αCtx binding (in words) (α1β3γ2 GABAAR) | IC50 (human α7 nAChR) [nM] | nH (Hill slope) (human α7 nAChR) | IC50 (mouse 5-HT3AR [3]) [nM] | fold less active than d-TC (mouse 5-HT3AR [3]) [fold] | nH (Hill slope) (mouse 5-HT3AR [3]) | inhibition of GABAAR (in words) (GABAAR) | inhibition of GABA-evoked currents (mouse α3β2γ2 GABAAR) | IC50 (mouse 5-HT3AR [4]) [nM] | IC50 (human 5-HT3AR) [nM] | fold higher affinity of orthosteric α/ε (or α/γ) site than orthosteric α/δ site [5] [fold] |
| --- | --- | --- | --- | --- | --- | --- | --- | --- | --- | --- | --- | --- | --- | --- | --- | --- |
| COc1ccc2cc1Oc1cc3c(cc1O)CCN[C@H]3Cc1ccc(cc1)Oc1c(O)c(OC)cc3c1[C@@H](C2)[N+](C)(C)CC3 [BBIQA2] | reduces the maximal acetylcholine response | 40 to 50 | 1750 | ~ 2 fold | -1.04 ± 0.21 | comparable affinities | 3080 | -0.94 ± 0.29 | 1970 | 87 | -1.83 ± 0.01 |  |  |  |  |  |
| COc1cc2c3cc1Oc1cc(ccc1O)C[C@@H]1c4c(cc(OC)c(O)c4Oc4ccc(cc4)C[C@@H]3N(C)CC2)CC[N+]1(C)C [d-TC, d-tubocurarine, reference compound] | reduces the maximal acetylcholine response | 90 | 810 |  | -1.87 ± 0.41 | comparable affinities | 2030 | -1.39 ± 0.21 | 22.6 |  | -1.19 ± 0.21 | inhibits GABAAR | almost completely inhibited | 11.4 to 13 | 1800 | 100 |
| COc1cc2c(cc1O)[C@@H](Cc1ccc(O)c(Oc3cc4c(cc3OC)CCN[C@H]4Cc3ccc(O)cc3)c1)NCC2 [BBIQA1] | reduces the maximal acetylcholine response | 40 to 50 | 750 |  | -0.96 ± 0.16 | comparable affinities | 1700 | -0.83 ± 0.17 | 119 | 5 | -1.06 ± 0.09 |  |  |  |  |  |
| α-bungarotoxin [αBgt, reference compound] | did not observe any reduction in the maximal amplitude |  |  |  |  |  |  |  |  |  |  |  |  |  |  |  |
